Results: US6972286B2, “Oxazolidinones having a benzannulated 6- or 7-membered heterocycle” (Pharmacia and Upjohn Company, priority 2000, dated 2005)
In brackets after ≈: the same amount, converted by molar mass.

How the values were obtained:
Streptococcus pneumoniae = assay: Minimum inhibitory concentration (MIC) by agar dilution; assay type: cell-based; conditions: in vitro, agar dilution (NCCLS 1993), Streptococcus pneumoniae strain SPNE 9912; read-out: Antibacterial Activity Minimum Inhibitory Concentration SPNE 9912
Source text: The oxazolidinone antibacterial agents of this invention have useful activity against a variety of organisms. The in vitro activity of compounds of this invention can be assessed by standard testing procedures such as the determination of minimum inhibitory concentration (MIC) by agar dilution as described in “Approved Standard. Methods for Dilution Antimicrobial Susceptibility Tests for Bacteria That Grow Aerobically”, 3rd. ed., published 1993 by the National Committee for Clinical Laboratory Standards, Villanova, Pa. USA.

SMILES | MIC (Streptococcus pneumoniae) | melting point
CC(=O)NC[C@H]1CN(c2ccc3c(c2)CCSC3)C(=O)O1 [Example 10, (−)-N-[[(5S)-3-(3,4-Dihydro-1H-2-benzothiopyran-6-yl)-2-oxo-5-oxazolidinyl]methyl]acetamide] | 1 mg/L (≈ 3.26 µM) | 112 to 114 °C (dec.)
CC(=S)NC[C@H]1CN(c2ccc3c(c2)CCSC3)C(=O)O1 [Example 11, (+)-N-[[(5S)-3-(3,4-Dihydro-1H-2-benzothiopyran-6-yl)-2-oxo-5-oxazolidinyl]methyl]ethanethioamide] | 0.25 mg/L (≈ 0.775 µM) | 112 to 114 °C (dec.)
CC(=S)NC[C@H]1CN(c2ccc3c(c2)CCS(=O)(=O)C3)C(=O)O1 [Example 12, (+)-N-[[(5S)-3-(3,4-Dihydro-2,2-dioxido-1H-2-benzothiopyran-6-yl)-2-oxo-5-oxazolidinyl]methyl]ethanethioamide] | 1 mg/L (≈ 2.82 µM) | 187 °C (dec.)
CC(=S)NC[C@H]1CN(c2ccc3c(c2)COCC3)C(=O)O1 [Example 13, (+)-N-[[(5S)-3-(3,4-Dihydro-1H-2-benzopyran-7-yl)-2-oxo-5-oxazolidinyl]methyl]ethanethioamide] | 1 mg/L (≈ 3.26 µM) | 165 °C (dec.)
CSc1nnc(N2CCc3ccc(N4C[C@H](CNC(C)=O)OC4=O)cc3CC2)s1 [Example 43, N-({(5S)-3-[3-(5-Methylthio-1,3,4-thiadiazol-2-yl)-1,2,4,5-tetrahydro-1H-3-benzazepin-7-yl]-2-oxo-1,3-oxazolidin-5-yl}methyl)acetamide] | 0.5 mg/L (≈ 1.15 µM) | –
CC(=O)NC[C@H]1CN(c2ccc3c(c2)CCN(c2nnc(C)s2)CC3)C(=O)O1 [Example 44, N-({(5S)-3-[3-(5-Methyl-1,3,4-thiadiazol-2-yl)-1,2,4,5-tetrahydro-1H-3-benzazepin-7-yl]-2-oxo-1,3-oxazolidin-5-yl}methyl)acetamide] | 1 mg/L (≈ 2.49 µM) | –
CC(=O)NC[C@H]1CN(c2ccc3c(c2)CCN(c2nnc(NC=O)s2)CC3)C(=O)O1 [Example 45, N-[((5S)-3-{3-[5-(Formylamino)-1,3,4-thiadiazol-2-yl]-1,2,4,5-tetrahydro-1H-3-benzazepin-7-yl}-2-oxo-1,3-oxazolidin-5-yl)methyl]acetamide] | 0.5 mg/L (≈ 1.16 µM) | –
CC(=O)NC[C@H]1CN(c2ccc3c(c2)CCN(c2nnc(NC(=O)CO)s2)CC3)C(=O)O1 [Example 46, N-[5-(7-{(5S)-5-[(Acetylamino)methyl]-2-oxo-1,3-oxazolidin-3-yl}-1,2,4,5-tetrahydro-3H-3-benzazepin-3-yl)-1,3,4-thiadiazol-2-yl]-2-hydroxyacetamide] | 0.5 mg/L (≈ 1.09 µM) | –
CC(=O)NC[C@H]1CN(c2ccc3c(c2)CCSCC3)C(=O)O1 [Example 47, N-[[(5S)-2-Oxo-3-(1,2,4,5-tetrahydro-3-benzothiepin-7-yl)-5-oxazolidinyl]methyl]acetamide] | 2 mg/L (≈ 6.24 µM) | –
CC(=O)NC[C@H]1CN(c2ccc3c(c2)CCS(=O)(=O)CC3)C(=O)O1 [Example 48, N-[[(5S)-2-Oxo-3-(1,2,4,5-tetrahydro-3,3-dioxido-3-benzothiepin-7-yl)-5-oxazolidinyl]methyl]acetamide] | 8 mg/L (≈ 22.7 µM) | –
CC(=S)NC[C@H]1CN(c2ccc3c(c2)CCSCC3)C(=O)O1 [Example 49, N-[[(5S)-2-Oxo-3-(1,2,4,5-tetrahydro-3-benzothiepin-7-yl)-5-oxazolidinyl]methyl]ethanethioamide] | 0.5 mg/L (≈ 1.49 µM) | –
CC(=S)NC[C@H]1CN(c2ccc3c(c2)CCS(=O)(=O)CC3)C(=O)O1 [Example 50, N-[[(5S)-2-Oxo-3-(1,2,4,5-tetrahydro-3,3-dioxido-3-benzothiepin-7-yl)-5-oxazolidinyl]methyl]ethanethioamide] | 1 mg/L (≈ 2.71 µM) | –
